Calls of active or inactive are those of the source. The rule behind the calls is not given here.
Assays:
Ephrin type-A receptor 2 [1] = target: T1, Ephrin type-A receptor 2 (Mus musculus, UniProt Q03145); assay: Displacement of biotinylated Fc-tagged ephrin-A1 from C/N-terminal 6-His tagged mouse recombinant EphA2 (Ala22 to Ala535 residues) preincubated for 1 hr followed by ephrin-A1-Fc addition and measured after 4 to 5 hrs by ELISA assay
Ephrin type-A receptor 7 = Ephrin type-A receptor 7 (Mus musculus, UniProt Q61772); assay: Displacement of biotinylated Fc-tagged ephrin-A1 from recombinant N/C-terminal 6-his tagged mouse EphA7 (Ala30 to Pro549 residues) preincubated for 1 hr followed by ephrin-A1-Fc addition and measured after 4 to 5 hrs by ELISA assay
Sequence of Ephrin type-A receptor 7 (Q61772 whole entry): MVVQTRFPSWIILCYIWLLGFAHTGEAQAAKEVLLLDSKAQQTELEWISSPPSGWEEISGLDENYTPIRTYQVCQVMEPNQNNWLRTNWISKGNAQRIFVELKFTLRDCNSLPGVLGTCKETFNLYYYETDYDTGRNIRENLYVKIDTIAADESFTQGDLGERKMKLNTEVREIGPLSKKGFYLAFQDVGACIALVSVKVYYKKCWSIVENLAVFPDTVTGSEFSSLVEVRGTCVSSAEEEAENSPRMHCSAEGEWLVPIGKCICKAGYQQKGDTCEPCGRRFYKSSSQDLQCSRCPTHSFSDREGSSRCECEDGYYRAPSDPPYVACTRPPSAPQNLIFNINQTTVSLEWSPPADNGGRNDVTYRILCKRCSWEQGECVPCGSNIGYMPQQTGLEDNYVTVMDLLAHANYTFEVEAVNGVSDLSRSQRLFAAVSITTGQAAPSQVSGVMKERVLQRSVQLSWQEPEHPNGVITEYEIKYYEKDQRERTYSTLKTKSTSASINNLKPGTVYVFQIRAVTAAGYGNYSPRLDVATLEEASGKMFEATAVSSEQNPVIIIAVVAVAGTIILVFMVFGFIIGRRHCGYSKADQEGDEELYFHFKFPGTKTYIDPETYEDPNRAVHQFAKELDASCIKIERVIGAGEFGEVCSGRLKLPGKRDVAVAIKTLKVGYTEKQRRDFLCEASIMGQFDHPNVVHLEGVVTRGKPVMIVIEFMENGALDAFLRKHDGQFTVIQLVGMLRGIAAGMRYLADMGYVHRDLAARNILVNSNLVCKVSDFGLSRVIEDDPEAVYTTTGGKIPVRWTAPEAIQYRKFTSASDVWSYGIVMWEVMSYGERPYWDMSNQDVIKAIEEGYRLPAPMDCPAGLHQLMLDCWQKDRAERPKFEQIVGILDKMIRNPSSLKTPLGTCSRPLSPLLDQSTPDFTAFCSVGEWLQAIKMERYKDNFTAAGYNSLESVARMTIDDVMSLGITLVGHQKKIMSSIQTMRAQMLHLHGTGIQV

Ephrin type-A receptor 2 [2] = target: T1, Ephrin type-A receptor 2; assay: Displacement of biotinylated Fc-tagged ephrin-A1 from C/N-terminal 6-His tag mouse recombinant EphA2 (Ala22 to Ala535 residues) assessed as inhibition constant preincubated for 1 hr followed by ephrin-A1-Fc addition and measured after 4 to 5 hrs by ELISA assay
Ephrin type-B receptor 2 = target: T2, Ephrin type-B receptor 2 (Mus musculus, UniProt P54763); assay: Displacement of biotinylated Fc-tagged ephrin-B1 from recombinant N/C-terminal 6-his tagged mouse EphB2 (Val27 to Lys548 residues) preincubated for 1 hr followed by ephrin-B1-Fc addition and measured after 4 to 5 hrs by ELISA assay
T2 sequence (P54763 whole entry): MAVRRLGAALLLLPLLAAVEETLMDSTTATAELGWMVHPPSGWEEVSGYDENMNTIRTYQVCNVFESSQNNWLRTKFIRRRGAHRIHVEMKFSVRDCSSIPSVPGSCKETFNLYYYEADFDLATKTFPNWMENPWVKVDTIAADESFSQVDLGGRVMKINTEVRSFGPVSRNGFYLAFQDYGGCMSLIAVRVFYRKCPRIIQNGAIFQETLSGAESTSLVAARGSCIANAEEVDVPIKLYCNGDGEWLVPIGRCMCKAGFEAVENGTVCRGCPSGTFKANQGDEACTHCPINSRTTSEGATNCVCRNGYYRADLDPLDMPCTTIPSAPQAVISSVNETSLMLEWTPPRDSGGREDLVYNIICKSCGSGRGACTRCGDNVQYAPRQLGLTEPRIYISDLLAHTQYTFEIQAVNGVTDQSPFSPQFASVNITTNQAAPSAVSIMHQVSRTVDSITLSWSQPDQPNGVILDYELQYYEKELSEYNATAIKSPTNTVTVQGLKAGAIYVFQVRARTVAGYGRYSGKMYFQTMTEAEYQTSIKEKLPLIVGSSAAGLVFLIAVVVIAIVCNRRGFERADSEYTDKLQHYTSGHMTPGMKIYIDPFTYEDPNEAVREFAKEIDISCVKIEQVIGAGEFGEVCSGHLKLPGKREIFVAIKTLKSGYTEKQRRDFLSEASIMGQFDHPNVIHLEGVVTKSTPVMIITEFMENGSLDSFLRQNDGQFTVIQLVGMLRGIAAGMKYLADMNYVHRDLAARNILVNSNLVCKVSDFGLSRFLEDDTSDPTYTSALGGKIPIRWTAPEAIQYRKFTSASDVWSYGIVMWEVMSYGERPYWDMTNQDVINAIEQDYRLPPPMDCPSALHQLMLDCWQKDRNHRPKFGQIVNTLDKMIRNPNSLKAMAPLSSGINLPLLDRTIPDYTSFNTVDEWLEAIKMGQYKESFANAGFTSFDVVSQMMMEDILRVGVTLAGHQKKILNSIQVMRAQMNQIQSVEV

Ephrin type-A receptor 4 = Ephrin type-A receptor 4 (Mus musculus, UniProt Q03137); assay: Displacement of biotinylated Fc-tagged ephrin-A1 from recombinant N/C-terminal 6-his tagged mouse EphA4 (Val20 to Thr547 residues) preincubated for 1 hr followed by ephrin-A1-Fc addition and measured after 4 to 5 hrs by ELISA assay
Sequence of Ephrin type-A receptor 4 (Q03137 whole entry): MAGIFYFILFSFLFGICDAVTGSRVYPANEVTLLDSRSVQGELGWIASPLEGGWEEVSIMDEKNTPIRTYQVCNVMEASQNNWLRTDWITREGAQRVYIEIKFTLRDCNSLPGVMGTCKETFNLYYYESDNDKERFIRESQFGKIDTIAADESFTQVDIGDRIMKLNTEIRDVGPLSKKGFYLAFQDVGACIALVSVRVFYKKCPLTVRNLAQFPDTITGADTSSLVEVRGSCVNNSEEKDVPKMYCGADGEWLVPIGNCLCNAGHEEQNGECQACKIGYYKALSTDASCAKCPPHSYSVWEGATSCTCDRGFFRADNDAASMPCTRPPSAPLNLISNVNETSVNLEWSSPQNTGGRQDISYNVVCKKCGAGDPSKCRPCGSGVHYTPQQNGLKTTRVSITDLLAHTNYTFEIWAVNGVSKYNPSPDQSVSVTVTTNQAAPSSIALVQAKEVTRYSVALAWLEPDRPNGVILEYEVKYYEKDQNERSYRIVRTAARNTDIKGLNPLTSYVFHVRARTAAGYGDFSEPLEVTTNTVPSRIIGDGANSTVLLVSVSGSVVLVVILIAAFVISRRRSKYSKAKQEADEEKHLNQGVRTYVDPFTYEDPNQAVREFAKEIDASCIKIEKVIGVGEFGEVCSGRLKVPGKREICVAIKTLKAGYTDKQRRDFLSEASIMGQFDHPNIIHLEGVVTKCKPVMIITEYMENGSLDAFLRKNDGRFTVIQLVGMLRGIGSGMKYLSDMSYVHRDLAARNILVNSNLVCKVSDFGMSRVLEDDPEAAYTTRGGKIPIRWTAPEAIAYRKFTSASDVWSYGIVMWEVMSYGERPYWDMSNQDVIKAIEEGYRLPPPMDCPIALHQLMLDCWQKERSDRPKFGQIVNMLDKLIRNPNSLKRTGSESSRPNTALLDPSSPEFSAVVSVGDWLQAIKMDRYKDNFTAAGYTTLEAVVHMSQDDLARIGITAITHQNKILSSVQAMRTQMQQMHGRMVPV

Ephrin type-A receptor 8 = target: T3, Ephrin type-A receptor 8 (Mus musculus, UniProt O09127); assay: Displacement of biotinylated Fc-tagged ephrin-A1 from recombinant N/C-terminal 6-his tagged mouse EphA8 (Gly27 to Arg540 residues) preincubated for 1 hr followed by ephrin-A1-Fc addition and measured after 4 to 5 hrs by ELISA assay
T3 sequence (O09127 whole entry): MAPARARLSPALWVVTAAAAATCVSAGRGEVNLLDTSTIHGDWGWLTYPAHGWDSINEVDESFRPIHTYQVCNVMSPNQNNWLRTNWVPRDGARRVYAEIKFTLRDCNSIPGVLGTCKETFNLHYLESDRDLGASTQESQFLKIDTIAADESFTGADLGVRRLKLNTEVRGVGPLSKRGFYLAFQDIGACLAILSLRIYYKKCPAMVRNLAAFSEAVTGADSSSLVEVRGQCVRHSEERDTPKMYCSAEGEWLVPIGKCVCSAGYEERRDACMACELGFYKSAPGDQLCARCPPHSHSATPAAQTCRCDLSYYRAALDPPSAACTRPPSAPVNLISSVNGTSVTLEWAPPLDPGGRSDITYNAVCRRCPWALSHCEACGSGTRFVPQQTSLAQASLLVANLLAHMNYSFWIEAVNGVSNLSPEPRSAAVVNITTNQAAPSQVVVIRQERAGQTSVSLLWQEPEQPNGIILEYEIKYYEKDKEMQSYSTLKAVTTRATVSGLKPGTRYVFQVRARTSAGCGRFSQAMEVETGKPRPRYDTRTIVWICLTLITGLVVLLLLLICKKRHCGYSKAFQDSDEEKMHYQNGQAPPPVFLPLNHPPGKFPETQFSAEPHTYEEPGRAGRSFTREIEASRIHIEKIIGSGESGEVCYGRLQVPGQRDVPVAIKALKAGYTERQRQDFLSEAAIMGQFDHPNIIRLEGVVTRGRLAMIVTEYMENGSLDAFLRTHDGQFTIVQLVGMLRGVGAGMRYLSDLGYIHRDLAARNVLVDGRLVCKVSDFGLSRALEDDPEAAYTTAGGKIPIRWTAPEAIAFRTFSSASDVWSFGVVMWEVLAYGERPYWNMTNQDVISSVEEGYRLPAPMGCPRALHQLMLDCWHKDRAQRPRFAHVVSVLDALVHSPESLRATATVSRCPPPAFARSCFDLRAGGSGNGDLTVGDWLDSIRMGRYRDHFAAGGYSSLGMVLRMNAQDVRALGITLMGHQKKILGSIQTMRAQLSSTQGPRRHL

U-251 [3] = assay: Antiproliferative activity against human U-251 cells assessed as inhibition of cell growth at 30 uM measured after 72 hrs by MTT assay relative to control; format: functional; parameters: scale not given: the % may be the effect or the level left
U-251 [4] = assay: Antiproliferative activity against human U-251 cells assessed as inhibition of cell growth at 10 uM measured after 72 hrs by MTT assay; format: functional, cell-based
U-251 [5] = assay: Cytotoxicity against human U-251 cells at upto 30 uM measured after 2 hrs by CytTox 96 non-radioactive cytotoxicity assay; format: functional, cell-based
LOUCY = assay: Antiproliferative activity against human LOUCY cells assessed as reduction in cell viability at 30 uM measured after 72 hrs by Celltiter-glo ATP based assay; format: functional
[6] = target: Ephrin type-A receptor 2 (Homo sapiens) (UniProt P29317); assay: Induction of EphA2 phosphorylation in human U-251 cells; format: cell-based
Sequence of Ephrin type-A receptor 2 (Homo sapiens) (P29317 whole entry): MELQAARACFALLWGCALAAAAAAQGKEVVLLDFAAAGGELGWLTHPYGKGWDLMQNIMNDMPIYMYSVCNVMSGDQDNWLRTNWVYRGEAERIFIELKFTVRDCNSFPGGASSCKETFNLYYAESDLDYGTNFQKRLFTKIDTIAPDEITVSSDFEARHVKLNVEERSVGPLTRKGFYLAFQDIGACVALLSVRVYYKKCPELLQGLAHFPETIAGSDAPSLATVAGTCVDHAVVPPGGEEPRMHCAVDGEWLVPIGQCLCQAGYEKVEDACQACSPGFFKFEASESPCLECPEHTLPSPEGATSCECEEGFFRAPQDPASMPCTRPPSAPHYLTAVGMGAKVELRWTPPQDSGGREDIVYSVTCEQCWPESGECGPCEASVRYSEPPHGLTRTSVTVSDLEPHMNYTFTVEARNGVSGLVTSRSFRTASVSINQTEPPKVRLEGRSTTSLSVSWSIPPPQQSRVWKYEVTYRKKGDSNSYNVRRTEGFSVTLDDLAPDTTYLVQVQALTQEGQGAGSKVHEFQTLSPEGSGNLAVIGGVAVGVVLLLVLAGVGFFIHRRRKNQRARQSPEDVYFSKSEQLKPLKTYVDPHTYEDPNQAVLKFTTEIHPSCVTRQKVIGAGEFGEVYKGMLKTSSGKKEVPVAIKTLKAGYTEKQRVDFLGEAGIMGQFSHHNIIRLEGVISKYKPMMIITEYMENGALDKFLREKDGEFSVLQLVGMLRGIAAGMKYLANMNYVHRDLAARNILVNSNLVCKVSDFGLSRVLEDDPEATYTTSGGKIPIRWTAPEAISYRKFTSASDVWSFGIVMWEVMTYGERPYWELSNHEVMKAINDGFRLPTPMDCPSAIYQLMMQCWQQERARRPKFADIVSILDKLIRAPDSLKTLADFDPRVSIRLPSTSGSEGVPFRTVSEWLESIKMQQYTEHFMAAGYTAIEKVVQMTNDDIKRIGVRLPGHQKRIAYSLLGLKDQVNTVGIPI

T1 sequence (Q03145 whole entry): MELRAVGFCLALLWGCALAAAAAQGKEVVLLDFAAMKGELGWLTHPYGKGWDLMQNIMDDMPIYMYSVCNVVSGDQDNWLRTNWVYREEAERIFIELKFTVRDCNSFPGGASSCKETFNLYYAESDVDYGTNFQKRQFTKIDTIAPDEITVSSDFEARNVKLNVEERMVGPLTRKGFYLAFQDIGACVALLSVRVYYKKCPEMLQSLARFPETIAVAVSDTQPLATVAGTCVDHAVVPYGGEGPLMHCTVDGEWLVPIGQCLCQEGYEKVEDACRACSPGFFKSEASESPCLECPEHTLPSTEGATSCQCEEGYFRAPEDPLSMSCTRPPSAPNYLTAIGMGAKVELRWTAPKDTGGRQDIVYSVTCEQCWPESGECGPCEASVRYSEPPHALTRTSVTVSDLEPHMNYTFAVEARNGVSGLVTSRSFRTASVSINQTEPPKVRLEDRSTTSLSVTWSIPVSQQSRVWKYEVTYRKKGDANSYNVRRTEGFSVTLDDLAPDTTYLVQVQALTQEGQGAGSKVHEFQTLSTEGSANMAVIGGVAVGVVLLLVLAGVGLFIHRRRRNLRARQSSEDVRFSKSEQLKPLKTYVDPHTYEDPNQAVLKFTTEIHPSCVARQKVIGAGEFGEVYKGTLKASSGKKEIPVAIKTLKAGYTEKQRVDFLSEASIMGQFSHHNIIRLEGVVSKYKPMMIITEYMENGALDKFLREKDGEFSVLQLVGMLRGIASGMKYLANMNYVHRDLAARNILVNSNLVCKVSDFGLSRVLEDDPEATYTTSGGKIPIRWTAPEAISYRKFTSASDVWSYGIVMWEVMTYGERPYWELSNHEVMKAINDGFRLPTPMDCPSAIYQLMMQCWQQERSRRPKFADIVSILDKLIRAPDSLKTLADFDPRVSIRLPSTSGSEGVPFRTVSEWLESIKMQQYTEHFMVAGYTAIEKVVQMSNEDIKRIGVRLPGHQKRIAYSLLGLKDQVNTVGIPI

Row | Activity [6] | SMILES | IC50 (Ephrin type-A receptor 2 [1]) | IC50 (Ephrin type-A receptor 7) | Ki (Ephrin type-A receptor 2 [2]) | IC50 (Ephrin type-B receptor 2) | IC50 (Ephrin type-A receptor 4) | IC50 (Ephrin type-A receptor 8) | Activity (U-251 [3]) | Activity (U-251 [4]) | Activity (U-251 [5]) | Activity (LOUCY)
1 |  | C[C@H](CCC(=O)N[C@H](CC(=O)O)Cc1cn(S(=O)(=O)c2ccccc2)c2ccccc12)[C@H]1CC[C@H]2[C@@H]3CC=C4C[C@@H](O)CC[C@]4(C)[C@H]3CC[C@]12C | 8.1 µM | 22 µM | 2.2 µM | > 30 µM | 6.3 µM | 5.5 µM |  |  |  | 
2 | inactive | C[C@H](CCC(=O)N[C@H](CC(=O)O)Cc1cn(S(=O)(=O)c2ccc(C(F)(F)F)cc2)c2ccccc12)[C@H]1CC[C@H]2[C@@H]3CC=C4C[C@@H](O)CC[C@]4(C)[C@H]3CC[C@]12C | 2.6 µM | 15 µM | 2.8 µM | > 30 µM | 4.2 µM | 13 µM | 100% | Active | inactive | Active
3 |  | C[C@H](CCC(=O)N[C@H](CC(=O)O)Cc1c[nH]c2ccccc12)[C@H]1CC[C@H]2[C@@H]3CC=C4C[C@@H](O)CC[C@]4(C)[C@H]3CC[C@]12C |  | 4.5 µM |  |  | 2.8 µM | 1.8 µM |  |  |  | 
